Test results taken from ChEMBL document CHEMBL3124829, “Discovery of SCH 900188: A Potent Hepatitis C Virus NS5B Polymerase Inhibitor Prodrug As a Development Candidate” (ACS Med Chem Lett, 2014).
pEC50, pIC50: −log10 of the molar value.

Columns and labels:
[1] = Inhibition of HCV genotype 1b C-terminal polyhistidine-tagged NS5B Cdelta21 RdRp expressed in Escherichia coli using DCoH75 as template assessed as incorporation of [33P]-CTP in polynucleotide sequence after 2 hrs by scintillation counting analysis; set-up: species or system Hepatitis C virus subtype 1b
[2] = tested on: Hepatitis C virus; test: Antiviral activity against HCV infected in human hepatoma cells assessed as inhibition of viral RNA replication after 3 days by real time PCR analysis; type: functional, organism-based, Hepacivirus hominis; settings: 72 h
[3] = AUC (0 to 6 hrs) in rat at 10 mg/kg, po; type: ADME, organism-based; set-up: time < 6 hr, dose 10 mg/kg, route oral; settings: plasma

pIC50 [1]	pEC50 [2]	AUC(0-t) at 6 h [3] [µM·h]	SMILES
8.15	8.15	0.02	Nc1nc2cc(F)c(Cn3c(C(=O)O)c(-c4ccc[nH]c4=O)c4c5occc5c(F)cc43)cc2c(=O)[nH]1
8.40	7.70	0.85	Cc1nc2cc(F)c(Cn3c(C(=O)O)c(-c4ccc[nH]c4=O)c4c5occc5c(F)cc43)cc2c(=O)[nH]1
5.70	5.70		O=C(O)c1c(-c2ccc[nH]c2=O)c2c3occc3c(F)cc2n1Cc1cc2[nH]c(=O)oc2cc1F
7.89	8.00		CC(C)(C)C(=O)OCn1cnc2cc(F)c(Cn3c(C(=O)O)c(-c4ccc[nH]c4=O)c4c5occc5c(F)cc43)cc2c1=O
8.22	6.52		Cn1c(=O)[nH]c(=O)c2cc(Cn3c(C(=O)O)c(-c4ccc[nH]c4=O)c4c5occc5c(F)cc43)c(F)cc21
8.30	6.15		O=C(O)c1ccc(F)c(Cn2c(C(=O)O)c(-c3ccc[nH]c3=O)c3c4occc4c(F)cc32)c1
8.40	8.22	8.3	O=C(O)c1c(-c2ccc[nH]c2=O)c2c3occc3c(F)cc2n1Cc1cc2c(=O)[nH]c(=O)[nH]c2cc1F
8.15	8.00	4	O=C(O)c1c(-c2ccc[nH]c2=O)c2c3occc3c(F)cc2n1Cc1cc2[nH]c(=O)[nH]c2cc1F
6.40	7.16		CCOC(=O)c1c(-c2ccc[nH]c2=O)c2c3occc3c(F)cc2n1Cc1cc2c(=O)n(COC(=O)C(C)(C)C)cnc2cc1F
7.29	7.17		CC(C)(C)C(=O)OCn1cccc(-c2c(C(=O)O)n(Cc3cc4c(=O)[nH]cnc4cc3F)c3cc(F)c4ccoc4c23)c1=O
8.40			NC(=O)c1ccc(F)c(Cn2c(C(=O)O)c(-c3ccc[nH]c3=O)c3c4occc4c(F)cc32)c1
8.52	6.60	0.17	Cn1cnc2cc(F)c(Cn3c(C(=O)O)c(-c4ccc[nH]c4=O)c4c5occc5c(F)cc43)cc2c1=O
7.70	7.15	8.8	CC(=O)c1ccc(F)c(Cn2c(C(=O)O)c(-c3ccc[nH]c3=O)c3c4occc4c(F)cc32)c1

More lines, now with the values behind:

SMILES	pIC50 [1]	pEC50 [2]	AUC(0-t) at 6 h [3] [µM·h]
NC(=O)c1ccc(F)c(Cn2c(C(=O)NS(=O)(=O)C3CC3)c(-c3ccc[nH]c3=O)c3cc(C(F)(F)F)ccc32)c1	8.22	6.77	
CCc1ccc2c(c1)c(-c1ccc[nH]c1=O)c(C(=O)NS(=O)(=O)C1CC1)n2Cc1cc(F)ccc1F	8.52	7.40	
CCc1ccc2c(c1)c(-c1ccc[nH]c1=O)c(C(=O)NS(=O)(=O)C1CC1)n2Cc1cc(O)ccc1F	8.30	7.00	
CCc1ccc2c(c1)c(-c1ccc[nH]c1=O)c(C(=O)NS(=O)(=O)C1CC1)n2Cc1cc(C#N)ccc1F	8.15	7.10	
CCc1ccc2c(c1)c(-c1ccc[nH]c1=O)c(C(=O)NS(=O)(=O)C1CC1)n2Cc1cc(C(N)=O)ccc1F	7.92	7.52	
CCc1cc2c(-c3ccc[nH]c3=O)c(C(=O)NS(=O)(=O)C3CC3)n(Cc3cc(C(N)=O)ccc3F)c2cc1F	8.30	7.22	
Cc1ccc2c(c1)c(-c1ccc[nH]c1=O)c(C(=O)NS(=O)(=O)C1CC1)n2Cc1cc(C(N)=O)ccc1F	8.40		
Cc1cc2c(-c3ccc[nH]c3=O)c(C(=O)NS(=O)(=O)C3CC3)n(Cc3cc(C(N)=O)ccc3F)c2cc1F	8.40	7.30	
NC(=O)c1ccc(F)c(Cn2c(C(=O)NS(=O)(=O)C3CC3)c(-c3ccc[nH]c3=O)c3cc(C(F)(F)F)c(F)cc32)c1	8.10	6.82	
CCc1ccc2c(c1)c(-c1ccc[nH]c1=O)c(C(=O)NS(=O)(=O)C1CC1)n2Cc1cc(S(N)(=O)=O)ccc1F	8.30	7.10	
CCc1ccc2c(c1)c(-c1ccc[nH]c1=O)c(C(=O)NS(=O)(=O)C1CC1)n2Cc1cc(S(C)(=O)=O)ccc1F	8.10	7.10	
